The nature of series [1]: Cytotoxicity against LPS/IFNgamma-stimulated mouse RAW264.7 cells assessed as cell viability at 26 uM after 48 hrs by MTT method (reference value: 100 +/- 1.8%). The class given is cell-based. The conditions noted are these: LPS/IFNgamma-stimulated RAW264.7 cells, read-out: Activity.
For series [2], the system named is J774.A1. Kind of series: Inhibition of TNFalpha production in LPS/IFNgamma-stimulated mouse J774A1 cells assessed as TNFalpha level at 6.5 uM by ELISA method (reference value: 89.2 +/- 17.1 pg/mL). The class given is functional. In general terms: In an ELISA, binding on a coated surface is turned into a signal by an enzyme label.
Series [3] has as its system RAW264.7. Put plainly: Inhibition of TNFalpha production in LPS/IFNgamma-stimulated mouse RAW264.7 cells assessed as TNFalpha level at 6.5 uM by ELISA method. Format: functional, cell-based.
For series [4], the system named is J774.A1. Put plainly: Inhibition of nitric oxide production in LPS/IFNgamma-stimulated mouse J774A1 cells assessed as nitrites level at 13 uM by Griess method (reference value: 16.5 +/- 1.4 uM). Format: functional. On the technique in general: The Griess reaction detects nitrite, a stable product of nitric oxide.
The subject of series [5] is J774.A1. Put plainly: Inhibition of nitric oxide production in LPS/IFNgamma-stimulated mouse J774A1 cells assessed as nitrites level at 6.5 uM by Griess method (reference value: 16.5 +/- 1.4 uM). The class given is functional.
Series [6] has as its system J774.A1. Kind of series: Inhibition of nitric oxide production in LPS/IFNgamma-stimulated mouse J774A1 cells assessed as nitrites level at 26 uM by Griess method (reference value: 16.5 +/- 1.4 uM). The class given is functional.
Series [7] is described as follows: Cytotoxicity against LPS/IFNgamma-stimulated mouse J774A1 cells assessed as cell viability at 6.5 uM after 48 hrs by MTT method (reference value: 100 +/- 1.1%). The class given is cell-based, J774.A1. As to conditions: read-out: Activity. Background: Formazan colour is commonly taken as a measure of viable cells.
Series [8] can be described thus: Cytotoxicity against LPS/IFNgamma-stimulated mouse J774A1 cells assessed as cell viability at 13 uM after 48 hrs by MTT method (reference value: 100 +/- 1.1%). Format: cell-based, J774.A1. The conditions noted are these: read-out: Activity.
Series [9] can be described thus: Cytotoxicity against LPS/IFNgamma-stimulated mouse J774A1 cells assessed as cell viability at 26 uM after 48 hrs by MTT method (reference value: 100 +/- 1.1%). The conditions noted are these: read-out: Activity. Format: cell-based, J774.A1.
Series [10] concerns RAW264.7. Kind of series: Inhibition of nitric oxide production in LPS/IFNgamma-stimulated mouse RAW264.7 cells assessed as nitrites level at 6.5 uM by Griess method (reference value: 6.4 +/- 0.5 uM). Format: functional.
Series [11] deals with RAW264.7. Put plainly: Inhibition of nitric oxide production in LPS/IFNgamma-stimulated mouse RAW264.7 cells assessed as nitrites level at 13 uM by Griess method (reference value: 6.4 +/- 0.5 uM). Format: functional.
Series [12] deals with RAW264.7. Put plainly: Inhibition of nitric oxide production in LPS/IFNgamma-stimulated mouse RAW264.7 cells assessed as nitrites level at 26 uM by Griess method (reference value: 6.4 +/- 0.5 uM). Format: functional.
Series [13] is described as follows: Cytotoxicity against LPS/IFNgamma-stimulated mouse RAW264.7 cells assessed as cell viability at 6.5 uM after 48 hrs by MTT method (reference value: 100 +/- 1.8%). The class given is cell-based. As to conditions: LPS/IFNgamma-stimulated RAW264.7 cells, read-out: Activity.
The nature of series [14]: Cytotoxicity against LPS/IFNgamma-stimulated mouse RAW264.7 cells assessed as cell viability at 13 uM after 48 hrs by MTT method (reference value: 100 +/- 1.8%). As to conditions: LPS/IFNgamma-stimulated RAW264.7 cells, read-out: Activity. The class given is cell-based.

Active and inactive are the calls of the source. The calls are words filed in the database; no cut-off is given here.

For `CC1(C)O[C@H]2[C@@H](O1)[C@@H](COc1cc(O)c3c(=O)c(-c4ccc(O)cc4)coc3c1)O[C@@H]1OC(C)(C)O[C@@H]12`, the figures for the viability at 48 h, 26 µM in [1] and in [9] were 71.3% and 30.3%, respectively. The inhibition entry in [2] and in series [3] was “inactive” throughout. Also, the Activity amounted to 12.8 µM in [4]; 17.7 µM in [5]; 0.7 µM in [6]; 2.4 µM in series [10]; 2.5 µM in series [11]; 3.1 µM in series [12]. Besides, the viability at 48 h, 6.5 µM in [7] was determined as 102%; in [13] it was 87.6%. Besides, the results for the viability at 48 h, 13 µM in series [8] and in series [14] were 85.5% and 88.1%, respectively.

As to `CO[C@H]1O[C@H](COc2ccc(-c3coc4cc(OC[C@H]5O[C@H](OC)[C@H](OC(C)=O)[C@@H](OC(C)=O)[C@@H]5OC(C)=O)cc(O)c4c3=O)cc2)[C@@H](OC(C)=O)[C@H](OC(C)=O)[C@H]1OC(C)=O`, the viability at 48 h, 26 µM stood at 101% in [1] and 87.9% in [9]. For the same compound, the Activity in series [2] came out at 51.9 pg/mL; in series [4] it was 12.1 µM; in series [5] it was 11.5 µM; in [6], 11.7 µM; in [10], 1.9 µM; in series [11] it was 2.5 µM. Besides, the Activity in series [12] stood at 4.1 µM. Further, in series [3], the inhibition entry was “inactive”. Besides, the viability at 48 h, 6.5 µM is 82.1% in [7] and 103% in series [13]. In addition, the viability at 48 h, 13 µM is 86.7% in series [8] and 98.4% in [14].

In the case of `O=c1c(-c2ccc(O)cc2)coc2cc(O)cc(O)c12` [GENISTEIN], the viability at 48 h, 26 µM in [1] was found to be 108%; in [9] it was 110%. The inhibition result in series [2] is “inactive”. Further, the Activity was 13.8 µM in series [4]; 13.4 µM in series [5]; 14.5 µM in [6]; 6.3 µM in series [10]; 6.3 µM in series [11]; 6.1 µM in [12]. The viability at 48 h, 6.5 µM in [7] was 112%; in series [13], 128%. The viability at 48 h, 13 µM is 104% in series [8] and 103% in [14].

For the compound `CC1(C)O[C@H]2[C@@H](O1)[C@@H](COc1ccc(-c3coc4cc(OC[C@H]5O[C@@H]6OC(C)(C)O[C@@H]6[C@H]6OC(C)(C)O[C@H]65)cc(O)c4c3=O)cc1)O[C@@H]1OC(C)(C)O[C@@H]12`, the viability at 48 h, 26 µM in series [1] came out at 94.4%; in series [9] it was 83.6%. Besides, the inhibition entry in [2] and in series [3] was “inactive” each time. For the same compound, the Activity in series [4] turned out to be 11.8 µM; in [5] it was 9.8 µM; in [6] it was 12.3 µM; in series [10] it was 2.6 µM; in [11], 2.7 µM; in series [12], 2.4 µM. In addition, the results for the viability at 48 h, 6.5 µM in [7] and in [13] were 89.7% and 98.9%, respectively. Also, the figures for the viability at 48 h, 13 µM in [8] and in series [14] were 87.3% and 89.4%, respectively.

With `O=c1c(-c2ccc(O)cc2)coc2cc(OC[C@H]3O[C@H](O)[C@H](O)[C@@H](O)[C@H]3O)cc(O)c12`, the viability at 48 h, 26 µM in series [1] amounted to 95.8%; in series [9], 88.9%. Besides, the Activity was found to be 38.3 pg/mL in [2]; 10.9 µM in series [4]; 9.7 µM in series [5]; 9.1 µM in [6]; 1.4 µM in series [10]; 0 µM in series [11]. Also, the Activity in [12] was 0 µM. Besides, the inhibition entry in [3] is “inactive”. Further, the viability at 48 h, 6.5 µM came to 93.6% in series [7] and 95.9% in [13]. Further, the viability at 48 h, 13 µM in [8] came to 95.2%; in [14] it was 98.2%.

Turning to `CO[C@H]1O[C@H](COc2ccc(-c3coc4cc(OC[C@H]5O[C@H](OC)[C@H](O)[C@@H](O)[C@@H]5O)cc(O)c4c3=O)cc2)[C@@H](O)[C@H](O)[C@H]1O`, the viability at 48 h, 26 µM was 92.2% in series [1] and 94.8% in [9]. The inhibition entry in series [2] and in series [3] was “inactive” each time. Moreover, the Activity in series [4] amounted to 9.1 µM; in [5], 8.7 µM; in [6], 8.5 µM; in series [10], 0 µM; in series [11], 0 µM; in [12], 0 µM. Further, the viability at 48 h, 6.5 µM in series [7] was 99.9%; in [13], 93.6%. Further, the viability at 48 h, 13 µM came out at 96.6% in series [8] and 99.2% in series [14].

As for `CO[C@H]1O[C@H](COc2cc(O)c3c(=O)c(-c4ccc(O)cc4)coc3c2)[C@@H](O)[C@H](O)[C@H]1O`, the values for the viability at 48 h, 26 µM in series [1] and in [9] were 78.3% and 44.9%, respectively. Moreover, the inhibition result in [2] and in series [3] was “inactive” throughout. Moreover, the Activity in series [4] stood at 11.3 µM; in series [5], 7.2 µM; in series [6], 14.3 µM; in series [10], 1.4 µM; in series [11], 1 µM; in [12], 1.7 µM. The results for the viability at 48 h, 6.5 µM in [7] and in [13] were 68.1% and 91.3%, respectively. Moreover, the figures for the viability at 48 h, 13 µM in series [8] and in series [14] were 64.3% and 88.1%, respectively.

`CO[C@H]1O[C@H](COc2cc(O)c3c(=O)c(-c4ccc(O)cc4)coc3c2)[C@@H](OC(C)=O)[C@H](OC(C)=O)[C@H]1OC(C)=O`: the viability at 48 h, 26 µM turned out to be 103% in [1] and 87.4% in series [9]. Further, the Activity in series [2] came to 51.7 pg/mL; in series [4], 13.1 µM; in [5], 12.7 µM; in series [6] it was 10.4 µM; in series [10], 2.1 µM; in series [11], 4.2 µM. In addition, the Activity in series [12] was found to be 2.4 µM. For the same compound, the inhibition result in [3] is “inactive”. Also, the figures for the viability at 48 h, 6.5 µM in series [7] and in series [13] were 94.7% and 103%, respectively. The viability at 48 h, 13 µM in [8] was 92.7%; in series [14], 104%.

The record behind these values is ChEMBL document CHEMBL3351950, “Synthesis of genistein coupled with sugar derivatives and their inhibitory effect on nitric oxide production in macrophages” (Eur J Med Chem, 2014).
